According to patent US11471508B2, “HMGB1 antagonist treatment of diabetic peripheral neuropathy” (THE FEINSTEIN INSTITUTES FOR MEDICAL RESEARCH, priority 2019, dated 2022):
Entries after “also recorded” stand apart in the source; their conditions may differ. Where two headings read alike, the source gives them in different places.

Tests used:
[1] = test system: liver ischemia and reperfusion injury; assay: Warm liver ischemia and reperfusion (I/R) model; type: in vivo, mouse; settings: 6 hours after reperfusion, vs vehicle control
Method: […] (SEQ ID NO: 1) (or vehicle control) was administered intraperitoneally at 500 μg/mouse at the time of I/R surgery and euthanized 6 hours later. Serum levels of ALT and AST were reduced in […] (SEQ ID NO: 1)-treated group vs. vehicle controls. *: P<0.05 vs. I/R group. n=5-7 mice/group. […] (SEQ ID NO: 1)-treated mice as compared to vehicle control (neutrophil infiltration, arrow). n=3-5 mice per group.

[2] = type: in vivo; settings: single-dose, rats
[3] = test system: CCI-induced neuropathic pain; assay: Chronic constriction injury of the sciatic nerve (CCI) neuropathic pain model; type: in vivo, rat
[4] = Stability under acidic conditions (pH=2), LC-MS; type: physicochemical; settings: pH=2, two hours
[5] = test system: DAMPs (CIRP, SAA, PEDF, HSP 70, HSP90, H2A)-induced TNF secretion; assay: DAMPs-induced TNF secretion in human macrophages; type: cell-based; settings: 16 hours
[6] = test system: STZ-induced diabetes; assay: STZ-induced diabetes; type: in vivo; settings: repetitive administration, 500 μg/mouse
Method: In Example 21, the effect of selective HMGB1-TLR4/MD-2 inhibition in STZ-induced diabetes was evaluated. Increased levels of HMGB1 have been reported in both diabetic patients and animal models. For example, elevated expression of HMGB1 is found in the retinas of diabetic patients and rat models with retinopathy. ([…]., Upregulation of RAGE and its ligands in proliferative retinal disease, Experimental Eye Research, 2006; 82(5): 807-815; Yu Y., The role of high mobility group box 1 (HMGB-1) in the diabetic retinopathy inflammation and apoptosis, International Journal of Clinical and Experimental Pathology, 2015; 8(6): 6807). […] (Dasu M. […] Based on this literature, tests were conducted on the effects of […] (SEQ ID NO: 1) and […] on STZ-induced diabetes in mice. Mice were administered repetitive administration of […] (500 μg/mouse). […] Repetitive administration of […] was therefore shown to be beneficial in STZ-induced diabetes. […] (*: P<0.05 vs. PBS group. N=6-8 mice per group).

[7] = in vivo; settings: male, Sprague-Dawley, rat, iv, 1 mg/kg, AUCtest
[8] = male, Sprague-Dawley, rat, in vivo
[9] = Degradation in rat plasma and whole blood; type: in vitro ADME
[10] = test system: APAP-induced liver injury; assay: APAP-induced liver injury model; type: in vivo, mouse
[11] = test system: HMGB1-induced TNF release; assay: HMGB1-induced TNF release in human primary macrophages (ELISA); type: cell-based; settings: FIG. 17A
Method: For all of these studies, TNF released was measured using an ELISA.

[12] = Pharmacokinetics after intravenous administration at 1 mg/kg in male Sprague-Dawley rats (LC-MS); settings: Mean
[13] = Oral bioavailability; settings: in vivo
[14] = test system: PAMPs (LPS, PGN, AGE and Poly I:C)-induced TNF release; assay: PAMPs-induced TNF release in human macrophages; type: cell-based; settings: LPS 4 ng/ml, poly I:C 50 μg/ml, PGN 5 μg/ml, S100A12 50 μg/ml; 16 hours
Method: TNF released was measured.

[15] = test system: TNF release stimulated by LPS, PGN, Poly I:C, CpG DNA or S100 A12; settings: cited from earlier work
[16] = test system: liver ischemia and reperfusion injury; settings: cited from earlier work
[17] = test system: APAP-induced liver injury; settings: cited from earlier work
[18] = test system: HMGB1-induced TNF release; settings: cited from earlier work

Compound: NC(=O)N(CCC(=O)O)NC(=O)[C@H](CO)NC(=O)[C@H](CO)NC(=O)N(N)Cc1ccccc1 [K883]
- liver inflammation (H&E, neutrophil infiltration) [1]: reduced inflammation
- tolerability [2]: well-tolerated
- Paw Withdrawal Latency (sec), CCI ([3]; 0 hours post treatment, K883 800 μg/rat or 2g7 300 μg/rat IP): 4.1 ± 1.0 s
- mechanical and thermal hypersensitivity ([3]; 800 μg/rat IP once a day for 3 days, Hargreaves, von Frey): ameliorated both mechanical and thermal hypersensitivity; also recorded: improved CCI-induced thermal and mechanical hypersensitivity
- tolerance to repeated treatment ([3]; 800 μg/rat IP once daily for three days, 2 weeks): did not develop tolerance
- Paw Withdrawal Latency (sec), CCI ([3]; 2 hours post treatment): 4.3 ± 1.2 s
- Paw Withdrawal Latency (sec), CCI ([3]; 6 hours post treatment): 6.0 ± 0.6 s
- Paw Withdrawal Latency (sec), CCI ([3]; 24 hours post treatment): 5.0 ± 0.5 s
- thermal hypersensitivity ([3]; CCI rats): ameliorated the thermal hypersensitivity
- CCI-induced CXCL1 and TNF expression (DRGs) ([3]; DRGs): reduce CCI-induced CSCL1 and TNF expression
- CCI-induced CXCL1, TNF and IL-1β expression (spine) ([3]; spine): reduce CCI-induced CSCL1, TNF and IL-1β expression
- stability to acid hydrolysis [4]: resistant to acid hydrolysis
- TNF secretion induced by other DAMPs [5]: is not inhibited
- insulitis [6]: reduces insulitis
- weight gain [6]: improves weight gain
- hyperglycemia ([6]; vs AI5779 or PBS controls): delays hyperglycemia
- AUC [7]: 3770 ng·h/mL
- Plasma concentration ([8]; 0.5 hr): 2500 ng/mL
- Plasma concentration ([8]; 1 hr): 1300 ng/mL
- Plasma concentration ([8]; 2 hr): 130 ng/mL
- Plasma concentration ([8]; 6 hr): 5.10 ng/mL
- Plasma concentration ([8]; 8 hr): 2.01 ng/mL
- degradation after incubating 120 minutes [9]: not degraded
- liver necrosis (H&E) ([10]; APAP 350 mg/kg, K883 50 μg/mouse IP at 2 and 7 hours, 24 hours post-APAP, vs vehicle): reduced liver necrosis
- mice surviving 2 weeks post-APAP ([10]; APAP 400 mg/kg, 50 μg/mouse IP once-a-day for 5 days from 2 hours post-APAP, control group 8): 14 mice out of 15
- HMGB1-induced TNF secretion [11]: causes inhibition
- Plasma concentration ([12]; 0.50 hr): 2913 ng/mL
- Plasma concentration ([12]; 1.0 hr): 1091 ng/mL
- Plasma concentration ([12]; 2.0 hr): 135 ng/mL
- Plasma concentration ([12]; 4.0 hr): 16.6 ng/mL
- Plasma concentration ([12]; 8.0 hr): 1.52 ng/mL
- oral bioavailability [13]: low
- PAMPs-induced TNF release [14]: failed to inhibit other PAMPS; also recorded: does not inhibit other PAMPs

Compound: NC(=O)[C@H](CCC(=O)O)NC(=O)[C@H](CO)NC(=O)[C@H](CO)NC(=O)[C@@H](N)Cc1ccccc1 [P5779]
- TNF release in macrophages stimulated by LPS, PGN, Poly I:C, CpG DNA or S100 A12 [15]: not suppress TNF release
- serum levels of ALT and AST ([16]; 500 μg/mouse IP at time of I/R surgery, 6 hours): reduced
- liver inflammation (H&E, neutrophil infiltration) ([16]; 6 hours after reperfusion, vs vehicle control): reduced inflammation
- serum ALT ([17]; 500 ugs/mouse): significant reductions in ALT
- liver necrosis (H&E) ([17]; APAP 350 mg/kg, P5779 50 or 500 μg/mouse IP at 2 and 7 hours, vs scrambled control peptide): reduced liver necrosis
- percent survival (2 weeks) post-APAP ([17]; APAP 400 mg/kg, 500 μg/mouse IP once a day for 5 days): significantly improved
- HMGB1-induced TNF release from macrophages [18]: inhibit HMGB1-induced TNF release from macrophages in a concentration-dependent manner
